From US20250281457A1, “TREATMENT OR PREVENTION OF DENGUE VIRAL INFECTION” (Janssen Pharmaceuticals, Inc., priority 2022, published 2025)
Read-outs that look alike come from different tables or passages of the source.

Test: Plasma pharmacokinetics with loading dose and weekly or twice weekly maintenance dosing, fed (Example 5)
Type: in vivo, human
Conditions: human, plasma, oral; for Cmax: read-out: Mean Cmax (SD); for AUC: read-out: Mean AUCτ (SD); for AUC(0-inf): read-out: Mean AUC∞ (SD); for concentration at 72 h: read-out: Mean C72 h (SD)
Description: A pharmaceutical formulation comprising Compound (a) as described in Example 2 (SF2a/b) was administered as an oral dosage form, to healthy adult participants, in a fed state. Four dose regimens were applied: • Panel I (weekly dosing): 450 mg of Compound (a) twice a day (BID) for two days: on day 1 (D1) and on day 2 (D2) (loading dose); and then 900 mg once a week (Q7D), on day 3 (D3), day 10 (D10), day 17 (D17), and on day 24 (D24) (maintenance dose). • Panel II (biweekly dosing): 450 mg of Compound (a) twice a day (BID) for two days: on day 1 (D1) and on day 2 (D2); (loading dose) and then 450 mg once every 3 (Q3D) or 4 days (Q4D): on day 3 (D3), on day 6 (D6), on day 10 (D10), on day 13 (D13), on day 17 (D17), on day 20 (D20), on day 24 (D24), and on day 27 (D27), for a total of 900 mg each week administered through two doses of 450 mg each (maintenance dose). • Panel III (weekly dosing): 150 mg of Compound (a) twice a day (BID) for two days: on day 1 (D1) and on day 2 (D2) (loading dose); and then 300 mg once a week (Q7D): on day 3 (D3), day 10 (D10), day 17 (D17), and on day 24 (D24) (maintenance dose). • Panel IV (biweekly dosing): 150 mg of Compound (a) twice a day (BID) for two days: on day 1 (D1) and on day 2 (D2) (loading dose); and then 150 mg Q3D or Q4D: on day 3 (D3), on day 6 (D6), on day 10 (D10), on day 13 (D13), on day 17 (D17), on day 20 (D20), on day 24 (D24), and on day 27 (D27), for a total of 300 mg each week administered through two doses of 150 mg each (maintenance dose).
Oral dosage forms were administered together with approximately 240 mL of non-carbonated water under fed conditions, and were taken within 10 minutes after completion of normal standardized normal fat breakfast in the morning or after completion of normal standardized normal fat dinner in case of evening dosing. Intake of Compound (a) took place at around the same time each day. Intake of Compound (a) marked time 0 hours.
A standardized normal fat meal was served approximately 30 minutes before study drug intake. The standardized normal fat meal contained approximately 21 g of fat, 67 g of carbohydrates, 19 g of proteins resulting in around 533 kcal (an example meal is 4 slices of bread, 2 slices of ham or cheese, butter, jelly, and 1 or 2 cups (up to 355 mL) of decaffeinated coffee or tea with milk and/or sugar). The standardized normal fat meal was ingested entirely within 30 minutes or less. Within 10 minutes after completing the meal, but no more than 30 minutes after the start of the meal, study drug was administered. In case of Compound (a) intake in the evening, timing of standardized dinner was aligned to time of drug intake. […]
For Study Panel 1 only, additional whole blood samples were be collected on Days 1, 24, 25, 26, 38, 45, 51, and 59 using venipuncture. The whole blood samples were be used for the determination of Compound (a) whole blood concentrations and for determination of Compound (a) plasma concentrations. To determine Compound (a) venous whole blood concentrations, an aliquot of the whole blood sample was be pipetted onto the TASSO M-20 for better comparison with capillary whole blood samples collected by TASSO M-20. […]
Separation between metabolites and interfering endogenous compounds was achieved by injecting 2 μL sample extract onto an Acquity UPLC BEH C18 column (50×2.1 mm, 1.7 μm, Waters) at 50° C. and using 10 mM ammonium bicarbonate solution as mobile phase A, and methanol: acetonitrile (50:50, v/v) as mobile phase B. A gradient elution at a flow rate of 0.600 mL/min was applied using the following program: 35% B was increased to 90% B in 3 min, was further increased to 98% B at 3.01 min and held constant up to 4.00 min.
A Triple Quad 6500+ mass spectrometer (Sciex) equipped with a turbo ion spray source was used for analyte detection in positive ion mode using electrospray ionization. […]

[1] = 450 mg, Panel I (450 mg BID Days 1-2, then 900 mg Q7D; SF2a/b, fed), Day 2
[2] = 450 mg, Panel II (450 mg BID Days 1-2, then 450 mg Q3D/Q4D; SF2a/b, fed), Day 27
[3] = Panel I (450 mg BID Days 1-2, then 900 mg Q7D; SF2a/b, fed), Day 24
[4] = Panel II (450 mg BID Days 1-2, then 450 mg Q3D/Q4D; SF2a/b, fed), Day 2
[5] = Panel III (150 mg BID Days 1-2, then 300 mg Q7D; SF2a/b, fed), Day 24
[6] = Panel IV (150 mg BID Days 1-2, then 150 mg Q3D/Q4D; SF2a/b, fed), Day 2

Cmax (300 mg, Panel III (150 mg BID Days 1-2, then 300 mg Q7D; SF2a/b, fed), Day 3): 3100 ng/mL
Tmax (300 mg, Panel III (150 mg BID Days 1-2, then 300 mg Q7D; SF2a/b, fed), Day 3, read-out: Median tmax (min-max)): 5 h
AUC (450 mg, Panel I (450 mg BID Days 1-2, then 900 mg Q7D; SF2a/b, fed), Day 1): 17.5 µg·h/mL
Tmax (450 mg, Panel I (450 mg BID Days 1-2, then 900 mg Q7D; SF2a/b, fed), Day 1, read-out: Median tmax (min-max)): 7.5 h
AUC [1]: 46.5 µg·h/mL
Cmax [1]: 5080 ng/mL
Tmax (450 mg, Panel I (450 mg BID Days 1-2, then 900 mg Q7D; SF2a/b, fed), Day 2, read-out: Median tmax (min-max)): 5.5 h
Cmax (450 mg, Panel II (450 mg BID Days 1-2, then 450 mg Q3D/Q4D; SF2a/b, fed), Day 1): 1960 ng/mL
AUC(0-t) (450 mg, Panel II (450 mg BID Days 1-2, then 450 mg Q3D/Q4D; SF2a/b, fed), Day 3, read-out: Mean AUC24 h (SD)): 110 µg·h/mL
AUC(0-t) (450 mg, Panel II (450 mg BID Days 1-2, then 450 mg Q3D/Q4D; SF2a/b, fed), Day 3, read-out: Mean AUC72 h (SD)): 263 µg·h/mL
Cmax (450 mg, Panel II (450 mg BID Days 1-2, then 450 mg Q3D/Q4D; SF2a/b, fed), Day 3): 5950 ng/mL
Tmax (450 mg, Panel II (450 mg BID Days 1-2, then 450 mg Q3D/Q4D; SF2a/b, fed), Day 3, read-out: Median tmax (min-max)): 6.5 h
Cmax (450 mg, Panel II (450 mg BID Days 1-2, then 450 mg Q3D/Q4D; SF2a/b, fed), Day 6): 4380 ng/mL
Cmax (450 mg, Panel II (450 mg BID Days 1-2, then 450 mg Q3D/Q4D; SF2a/b, fed), Day 10): 4080 ng/mL
Cmax (450 mg, Panel II (450 mg BID Days 1-2, then 450 mg Q3D/Q4D; SF2a/b, fed), Day 13): 4070 ng/mL
Cmax (450 mg, Panel II (450 mg BID Days 1-2, then 450 mg Q3D/Q4D; SF2a/b, fed), Day 17): 3940 ng/mL
Cmax (450 mg, Panel II (450 mg BID Days 1-2, then 450 mg Q3D/Q4D; SF2a/b, fed), Day 20): 4060 ng/mL
Cmax (450 mg, Panel II (450 mg BID Days 1-2, then 450 mg Q3D/Q4D; SF2a/b, fed), Day 24): 3920 ng/mL
AUC(0-t) (450 mg, Panel II (450 mg BID Days 1-2, then 450 mg Q3D/Q4D; SF2a/b, fed), Day 27, read-out: Mean AUC24 h (SD)): 74.2 µg·h/mL
AUC(0-t) (450 mg, Panel II (450 mg BID Days 1-2, then 450 mg Q3D/Q4D; SF2a/b, fed), Day 27, read-out: Mean AUC72 h (SD)): 197 µg·h/mL
AUC(0-t) (450 mg, Panel II (450 mg BID Days 1-2, then 450 mg Q3D/Q4D; SF2a/b, fed), Day 27, read-out: Mean AUClast (SD)): 771 µg·h/mL
AUC(0-inf) [2]: 809 µg·h/mL
Cmax [2]: 3980 ng/mL
Tmax (450 mg, Panel II (450 mg BID Days 1-2, then 450 mg Q3D/Q4D; SF2a/b, fed), Day 27, read-out: Median tmax (min-max)): 6 h
AUC(0-t) (900 mg, Panel I (450 mg BID Days 1-2, then 900 mg Q7D; SF2a/b, fed), Day 3, read-out: Mean AUC24 h (SD)): 129 µg·h/mL
AUC(0-t) (900 mg, Panel I (450 mg BID Days 1-2, then 900 mg Q7D; SF2a/b, fed), Day 3, read-out: Mean AUC72 h (SD)): 318 µg·h/mL
Cmax (900 mg, Panel I (450 mg BID Days 1-2, then 900 mg Q7D; SF2a/b, fed), Day 3): 6560 ng/mL
Tmax (900 mg, Panel I (450 mg BID Days 1-2, then 900 mg Q7D; SF2a/b, fed), Day 3, read-out: Median tmax (min-max)): 5 h
Cmax (Panel I (450 mg BID Days 1-2, then 900 mg Q7D; SF2a/b, fed), Day 1): 2020 ng/mL
Cmax (Panel I (450 mg BID Days 1-2, then 900 mg Q7D; SF2a/b, fed), Day 10): 4240 ng/mL
Cmax (Panel I (450 mg BID Days 1-2, then 900 mg Q7D; SF2a/b, fed), Day 17): 4280 ng/mL
AUC(0-t) (Panel I (450 mg BID Days 1-2, then 900 mg Q7D; SF2a/b, fed), Day 24, read-out: Mean AUC24 h (SD)): 79.7 µg·h/mL
AUC(0-t) (Panel I (450 mg BID Days 1-2, then 900 mg Q7D; SF2a/b, fed), Day 24, read-out: Mean AUC72 h (SD)): 195 µg·h/mL
AUC(0-t) (Panel I (450 mg BID Days 1-2, then 900 mg Q7D; SF2a/b, fed), Day 24, read-out: Mean AUClast (SD)): 657 µg·h/mL
AUC(0-inf) [3]: 676 µg·h/mL
Cmax [3]: 4260 ng/mL
Tmax (Panel I (450 mg BID Days 1-2, then 900 mg Q7D; SF2a/b, fed), Day 24, read-out: Median tmax (min-max)): 6 h
AUC (Panel II (450 mg BID Days 1-2, then 450 mg Q3D/Q4D; SF2a/b, fed), Day 1): 15.5 µg·h/mL
Tmax (Panel II (450 mg BID Days 1-2, then 450 mg Q3D/Q4D; SF2a/b, fed), Day 1, read-out: Median tmax (min-max)): 5.5 h
AUC [4]: 44.9 µg·h/mL
Cmax [4]: 4640 ng/mL
Tmax (Panel II (450 mg BID Days 1-2, then 450 mg Q3D/Q4D; SF2a/b, fed), Day 2, read-out: tmax): 5 h
Cmax (Panel III (150 mg BID Days 1-2, then 300 mg Q7D; SF2a/b, fed), Day 1): 741 ng/mL
Cmax (Panel III (150 mg BID Days 1-2, then 300 mg Q7D; SF2a/b, fed), Day 10): 2180 ng/mL
Cmax (Panel III (150 mg BID Days 1-2, then 300 mg Q7D; SF2a/b, fed), Day 17): 2050 ng/mL
AUC(0-t) (Panel III (150 mg BID Days 1-2, then 300 mg Q7D; SF2a/b, fed), Day 24, read-out: Mean AUC24 h (SD)): 37.2 µg·h/mL
AUC(0-t) (Panel III (150 mg BID Days 1-2, then 300 mg Q7D; SF2a/b, fed), Day 24, read-out: Mean AUC72 h (SD)): 92.5 µg·h/mL
AUC(0-t) (Panel III (150 mg BID Days 1-2, then 300 mg Q7D; SF2a/b, fed), Day 24, read-out: Mean AUClast (SD)): 299 µg·h/mL
AUC(0-inf) [5]: 325 µg·h/mL
Cmax [5]: 2130 ng/mL
Tmax (Panel III (150 mg BID Days 1-2, then 300 mg Q7D; SF2a/b, fed), Day 24, read-out: Median tmax (min-max)): 7 h
AUC (Panel IV (150 mg BID Days 1-2, then 150 mg Q3D/Q4D; SF2a/b, fed), Day 1): 5.98 µg·h/mL
Tmax (Panel IV (150 mg BID Days 1-2, then 150 mg Q3D/Q4D; SF2a/b, fed), Day 1, read-out: Median tmax (min-max)): 5 h
AUC [6]: 15.8 µg·h/mL
Cmax [6]: 1600 ng/mL
Tmax (Panel IV (150 mg BID Days 1-2, then 150 mg Q3D/Q4D; SF2a/b, fed), Day 2, read-out: tmax): 5 h
concentration at 72 h (Panel I (450 mg BID Days 1-2, then 900 mg Q7D; SF2a/b, fed), Day 3): 3440 ng/mL
concentration at 72 h (Panel II (450 mg BID Days 1-2, then 450 mg Q3D/Q4D; SF2a/b, fed), Day 3): 2710 ng/mL
concentration at 72 h (Panel III (150 mg BID Days 1-2, then 300 mg Q7D; SF2a/b, fed), Day 3): 1210 ng/mL
concentration at 72 h (Panel IV (150 mg BID Days 1-2, then 150 mg Q3D/Q4D; SF2a/b, fed), Day 3): 865 ng/mL
SMILES: COc1cc(NC(C(=O)c2c[nH]c3ccc(OC(F)(F)F)cc23)c2ccc(Cl)cc2OC)cc(S(C)(=O)=O)c1 (stereo not drawn) [Compound (a)]
